Measured values reported in patent publication US6355799B1, “Substituted benzene compounds, process for their preparation, and herbicidal and defoliant compositions containing them” (ISK Americas Incorporated, priority 1997, dated 2002).

How the values were obtained:
Type in all cases: in vivo
[1] = test system: redroot pigweed (Amaranthus retroflexus, AMARE); test: Pre-emerge test, greenhouse herbicide activity screening; conditions: pre-emerge, rated 14 days after application, 0 = no damage, 100 = complete death
In short: (§1)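 Sandy loam pots; pre-emerge: sown 1 d pre-spray, surface-watered after, then bottom-watered. Post-emerge: sown 8–21 d before, 2–3 leaf stage, + 0.25% v/v NIS, bottom-watered. Acetone, 187 l/ha track spray, 15–1000 g ai/ha. 0–100 injury score, day 14.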

[2] = test system: barnyardgrass (Echinochloa crus-galli, ECHCG); test: as above; conditions: pre-emerge, rated 14 days after application, 0 = no damage, 100 = complete death
In short: (§2)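 Visual ratings on a 0-100 scale (0 no damage, 100 all plants dead) were taken at 14 days after treatment. Rates of 15-1000 g ai/ha in acetone, 187 l/ha, were sprayed onto soil one day after planting (pre-emerge) or onto 2-3 leaf plants with 0.25% v/v surfactant (post-emerge).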

[3] = test system: green foxtail (Setaria viridis, SETVI); test: as above; conditions: pre-emerge, rated 14 days after application, 0 = no damage, 100 = complete death
In short: as §2

[4] = test system: ivyleaf morningglory (Ipomoea hederacea, IPOHE); test: as above; conditions: pre-emerge, rated 14 days after application, 0 = no damage, 100 = complete death
In short: as §2

[5] = test system: johnsongrass (Sorghum halepense, SORHA); test: as above; conditions: pre-emerge, rated 14 days after application, 0 = no damage, 100 = complete death
In short: as §2

[6] = test system: lambsquarters (Chenopodium album, CHEAL); test: as above; conditions: pre-emerge, rated 14 days after application, 0 = no damage, 100 = complete death
In short: as §2

[7] = test system: large crabgrass (Digitaria sanguinalis, DIGSA); test: as above; conditions: pre-emerge, rated 14 days after application, 0 = no damage, 100 = complete death
In short: as §2

[8] = test system: sicklepod (Cassia obtusifolia, CASOB); test: as above; conditions: pre-emerge, rated 14 days after application, 0 = no damage, 100 = complete death
In short: as §2

[9] = test system: velvetleaf (Abutilon theophrasti, ABUTH); test: as above; conditions: pre-emerge, rated 14 days after application, 0 = no damage, 100 = complete death
In short: as §2

[10] = test system: field corn (Zea mays L., var. Dekalb 535, CORN); test: Pre-emerge test, crop safety; conditions: pre-emerge, rated 14 days after application, 0 = no damage, 100 = complete death
In short: as §1

[11] = test system: upland rice (Oryza sp., var. Tebonnet, RICE); test: Pre-emerge test, crop safety; conditions: pre-emerge, rated 14 days after application, 0 = no damage, 100 = complete death
In short: as §1

[12] = test system: barnyardgrass (Echinochloa crus-galli, ECHCG); test: Post-emerge test, greenhouse herbicide activity screening; conditions: phytotoxicity rating 0-100 (0 no damage, 100 complete death), 14 days after application
In short: (§3)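 Herbicidal damage is scored 0 (none) to 100 (complete plant death) two weeks after a simulated field spray. Rates span 15–1000 g ai/ha, delivered in acetone at 187 l/ha. For post-emergence treatments, plants have 2–3 leaves and the spray carries 0.25% v/v non-ionic surfactant.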

[13] = test system: common ragweed (Ambrosia artemisizfolia L., AMBEL); test: as above; conditions: 250 g ai/ha; phytotoxicity rating 0-100 (0 no damage, 100 complete death), 14 days after application
In short: as §3

[14] = test system: green foxtail (Setaria viridis, SETVI); test: as above; conditions: phytotoxicity rating 0-100 (0 no damage, 100 complete death), 14 days after application
In short: as §3

[15] = test system: ivyleaf morningglory (Ipomoea hederacea, IPOHE); test: as above; conditions: phytotoxicity rating 0-100 (0 no damage, 100 complete death), 14 days after application
In short: as §3

[16] = test system: johnsongrass (Sorghum halepense, SORHA); test: as above; conditions: phytotoxicity rating 0-100 (0 no damage, 100 complete death), 14 days after application
In short: as §3

[17] = test system: lambsquarters (Chenopodium album, CHEAL); test: as above; conditions: phytotoxicity rating 0-100 (0 no damage, 100 complete death), 14 days after application
In short: as §3

[18] = test system: large crabgrass (Digitaria sanguinalis, DIGSA); test: as above; conditions: phytotoxicity rating 0-100 (0 no damage, 100 complete death), 14 days after application
In short: as §3

[19] = test system: redroot pigweed (Amaranthus retroflexus, AMARE); test: as above; conditions: phytotoxicity rating 0-100 (0 no damage, 100 complete death), 14 days after application
In short: as §3

[20] = test system: sicklepod (Cassia obtusifolia, CASOB); test: as above; conditions: phytotoxicity rating 0-100 (0 no damage, 100 complete death), 14 days after application
In short: as §3

[21] = test system: velvetleaf (Abutilon theophrasti, ABUTH); test: as above; conditions: phytotoxicity rating 0-100 (0 no damage, 100 complete death), 14 days after application
In short: as §3

[22] = test system: field corn (Zea mays L., var. Dekalb 535, CORN); test: Post-emerge test, crop safety; conditions: phytotoxicity rating 0-100 (0 no damage, 100 complete death), 14 days after application
In short: as §2

[23] = test system: upland rice (Oryza sp., var. Tebonnet, RICE); test: Post-emerge test, crop safety; conditions: phytotoxicity rating 0-100 (0 no damage, 100 complete death), 14 days after application
In short: as §2

Structure (SMILES): CCOC(=O)CC(=O)Nc1c(OC(=O)CC(=O)OCC)c(Cl)cc(F)c1-n1c(=O)cc(C(F)(F)F)n(C)c1=O [2-16]
- Pre-emerge Herbicidal Activity AMARE (phytotoxicity rating, scale 0-100) ([1]; 63 g ai/ha): 50
- Pre-emerge Herbicidal Activity AMARE (phytotoxicity rating, scale 0-100) ([1]; 250 g ai/ha): 100
- Pre-emerge Herbicidal Activity ECHCG (phytotoxicity rating, scale 0-100) ([2]; 63 g ai/ha): 0
- Pre-emerge Herbicidal Activity ECHCG (phytotoxicity rating, scale 0-100) ([2]; 250 g ai/ha): 40
- Pre-emerge Herbicidal Activity SETVI (phytotoxicity rating, scale 0-100) ([3]; 63 g ai/ha): 0
- Pre-emerge Herbicidal Activity SETVI (phytotoxicity rating, scale 0-100) ([3]; 250 g ai/ha): 100
- Pre-emerge Herbicidal Activity IPOHE (phytotoxicity rating, scale 0-100) ([4]; 63 g ai/ha): 0
- Pre-emerge Herbicidal Activity IPOHE (phytotoxicity rating, scale 0-100) ([4]; 250 g ai/ha): 90
- Pre-emerge Herbicidal Activity SORHA (phytotoxicity rating, scale 0-100) ([5]; 63 g ai/ha): 0
- Pre-emerge Herbicidal Activity SORHA (phytotoxicity rating, scale 0-100) ([5]; 250 g ai/ha): 80
- Pre-emerge Herbicidal Activity CHEAL (phytotoxicity rating, scale 0-100) ([6]; 63 g ai/ha): 95
- Pre-emerge Herbicidal Activity CHEAL (phytotoxicity rating, scale 0-100) ([6]; 250 g ai/ha): 100
- Pre-emerge Herbicidal Activity DIGSA (phytotoxicity rating, scale 0-100) ([7]; 63 g ai/ha): 0
- Pre-emerge Herbicidal Activity DIGSA (phytotoxicity rating, scale 0-100) ([7]; 250 g ai/ha): 100
- Pre-emerge Herbicidal Activity CASOB (phytotoxicity rating, scale 0-100) ([8]; 63 g ai/ha): 0
- Pre-emerge Herbicidal Activity CASOB (phytotoxicity rating, scale 0-100) ([8]; 250 g ai/ha): 100
- Pre-emerge Herbicidal Activity ABUTH (phytotoxicity rating, scale 0-100) ([9]; 63 g ai/ha): 80
- Pre-emerge Herbicidal Activity ABUTH (phytotoxicity rating, scale 0-100) ([9]; 250 g ai/ha): 100
- Pre-emerge crop damage CORN (phytotoxicity rating, scale 0-100) ([10]; 63 g ai/ha): 0
- Pre-emerge crop damage CORN (phytotoxicity rating, scale 0-100) ([10]; 250 g ai/ha): 20
- Pre-emerge crop damage RICE (phytotoxicity rating, scale 0-100) ([11]; 63 g ai/ha): 0
- Pre-emerge crop damage RICE (phytotoxicity rating, scale 0-100) ([11]; 250 g ai/ha): 15
- Post-emerge Herbicidal Activity ECHCG ([12]; 63 g ai/ha): 90
- Post-emerge Herbicidal Activity ECHCG ([12]; 250 g ai/ha): 100
- Post-emerge Herbicidal Activity AMBEL [13]: 100
- Post-emerge Herbicidal Activity SETVI ([14]; 63 g ai/ha): 50
- Post-emerge Herbicidal Activity SETVI ([14]; 250 g ai/ha): 100
- Post-emerge Herbicidal Activity IPOHE ([15]; 63 g ai/ha): 99
- Post-emerge Herbicidal Activity IPOHE ([15]; 250 g ai/ha): 100
- Post-emerge Herbicidal Activity SORHA ([16]; 63 g ai/ha): 40
- Post-emerge Herbicidal Activity SORHA ([16]; 250 g ai/ha): 95
- Post-emerge Herbicidal Activity CHEAL ([17]; 63 g ai/ha): 80
- Post-emerge Herbicidal Activity CHEAL ([17]; 250 g ai/ha): 100
- Post-emerge Herbicidal Activity DIGSA ([18]; 63 g ai/ha): 20
- Post-emerge Herbicidal Activity DIGSA ([18]; 250 g ai/ha): 60
- Post-emerge Herbicidal Activity AMARE ([19]; 63 g ai/ha): 50
- Post-emerge Herbicidal Activity AMARE ([19]; 250 g ai/ha): 100
- Post-emerge Herbicidal Activity CASOB ([20]; 63 g ai/ha): 10
- Post-emerge Herbicidal Activity CASOB ([20]; 250 g ai/ha): 80
- Post-emerge Herbicidal Activity ABUTH ([21]; 63 g ai/ha): 100
- Post-emerge Herbicidal Activity ABUTH ([21]; 250 g ai/ha): 100
- Post-emerge Herbicidal Activity CORN (crop damage) ([22]; 63 g ai/ha): 70
- Post-emerge Herbicidal Activity CORN (crop damage) ([22]; 250 g ai/ha): 90
- Post-emerge Herbicidal Activity RICE (crop damage) ([23]; 63 g ai/ha): 40
- Post-emerge Herbicidal Activity RICE (crop damage) ([23]; 250 g ai/ha): 45
